Test results from patent publication US9452990B2, “Complement pathway modulators and uses thereof” (NOVARTIS AG, priority 2012, dated 2016).
Structures can show the parent of a compound that is named as a salt.

Each molecule was assayed against human complement factor B (CVF-Bb complex) (Homo sapiens (Human), UniProt P00751) (assay: Human Complement Factor B ELISA Assay). Conditions: not given.
Assay type: biochemical
Outline: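 Preformed CVF-Bb complex (3 nM; cobra venom factor with recombinant human factors B and D) preincubated with compound 1 h, RT, in PBS pH 7.4, 10 mM MgCl2, 0.05% CHAPS. Plasma C3 added at 1 μM final for 1 h, then stopped; C3a product measured by ELISA, IC50 from % inhibition.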
With `COc1cc2c(N)nc(N3CCN(C(=O)C[C@@H](N)c4ccc(Cl)cc4)CC3)nc2c(F)c1OC` [Example 48, (R)-3-Amino-1-[4-(4-amino-8-fluoro-6,7-dimethoxy-quinazolin-2-yl)-piperazin-1-yl]-3-(4-chloro-phenyl)-propan-1-one hydrochloride] the IC50 was 90 nM.
`COc1cc2c(N)nc(N3CCN(C(=O)C[C@@H](N)c4ccoc4)CC3)nc2c(F)c1OC` [Example 35, (R)-3-Amino-1-[4-(4-amino-8-fluoro-6,7-dimethoxy-quinazolin-2-yl)piperazin-1-yl]-3-furan-3-yl-propan-1-one hydrochloride] was tested, and the IC50 was 310 nM.
With `COc1cc2c(N)nc(N3CCN(C(=O)C[C@@H](N)c4ccc(Br)cc4)CC3)nc2c(F)c1OC` [Example 49, (R)-3-Amino-1-[4-(4-amino-8-fluoro-6,7-dimethoxy-quinazolin-2-yl)-piperazin-1-yl]-3-(4-bromo-phenyl)-propan-1-one hydrochloride] the IC50 was 60 nM.
`COc1cc2c(N)nc(N3CCN(C(=O)C[C@@H](N)Cc4ccccc4)C[C@@H]3C)nc2c(F)c1OC` [Example 62, (S)-3-Amino-1-[(S)-4-(4-amino-8-fluoro-6,7-dimethoxy-quinazolin-2-yl)-3-methyl-piperazin-1-yl]-4-phenyl-butan-1-one hydrochloride] gave an IC50 of 2250 nM.
Work on `COc1cc2c(N)nc(N3CCN(C(=O)C[C@@H](N)c4ccc(C(F)(F)F)cc4)CC3)nc2c(F)c1OC` [Example 55, (R)-3-Amino-1-[4-(4-amino-8-fluoro-6,7-dimethoxy-quinazolin-2-yl)piperazin-1-yl]-3-(4-trifluoromethyl-phenyl)-propan-1-one hydrochloride] yielded an IC50 of 160 nM.
Molecule `COc1cc2c(N)nc(N3CCN(C(=O)C[C@@H](N)Cc4ccncc4)C[C@@H]3C)nc2c(F)c1OC` [Example 63, (S)-3-Amino-1-[(S)-4-(4-amino-8-fluoro-6,7-dimethoxy-quinazolin-2-yl)-3-methyl-piperazin-1-yl]-4-pyridin-4-yl-butan-1-one hydrochloride] has an IC50 of 7320 nM.
`COc1cc2c(N)nc(N3CCN(C(=O)C[C@@H](N)c4ccc(F)c(Cl)c4)CC3)nc2c(F)c1OC` [Example 52, (R)-3-Amino-1-[4-(4-amino-8-fluoro-6,7-dimethoxy-quinazolin-2-yl)-piperazin-1-yl]-3-(3-chloro-4-fluoro-phenyl)-propan-1-one hydrochloride] showed an IC50 of 110 nM.
Work on `COc1cc2c(N)nc(N3CCN(C(=O)C[C@@H](N)CC(C)C)C[C@@H]3C)nc2c(F)c1OC` [Example 56, (S)-3-Amino-1-[(S)-4-(4-amino-8-fluoro-6,7-dimethoxy-quinazolin-2-yl)-3-methyl-piperazin-1-yl]-5-methyl-hexan-1-one hydrochloride] yielded an IC50 of 240 nM.

Same assay, conditions: CVF-Bb complex 3 nM, 1 hour preincubation with compound at room temperature, human C3 substrate 1 μM, C3a quantified by ELISA; read-out: Factor B IC50
For `COc1cc2c(N)nc(N3CCN(C(=O)c4cc5cc(C#N)ccc5[nH]4)C[C@@H]3C)nc2c(F)c1OC` [Example 23, 2-[(S)-4-(4-Amino-8-fluoro-6,7-dimethoxy-quinazolin-2-yl)-3-methyl-piperazine-1-carbonyl]-1H-indole-5-carbonitrile], the IC50 was 15 nM.
`COCCOc1c(OC)cc2c(N)nc(N3CCN(C(=O)c4cc5cc(Cl)ccc5[nH]4)C[C@@H]3C)nc2c1F` [Example 30, {(S)-4-[4-Amino-8-fluoro-6-methoxy-7-(2-methoxy-ethoxy)-quinazolin-2-yl]-3-methyl-piperazin-1-yl}-(5-chloro-1H-indol-2-yl)-methanone] was tested, and the IC50 was 70 nM.
Work on `[2H]C([2H])([2H])N[C@H](CC(=O)N1CCN(c2nc(N)c3cc(OC)c(OC)c(F)c3n2)CC1)c1ccc(F)cc1` [Example 80, (R)-1-(4-(4-Amino-8-fluoro-6,7-dimethoxyquinazolin-2-yl)piperazin-1-yl)-3-(4-fluorophenyl)-3-(d^3-methylamino)propan-1-one hydrochloride] yielded an IC50 of 6 nM.
Work on `COC[C@H]1CN(C(=O)/C=C/C2CC2)CCN1c1nc(N)c2cc(OC)c(OC)c(F)c2n1` [Example 3] yielded an IC50 of 2060 nM.
Work on `CC[C@H]1CN(C(=O)/C=C/c2ccc(C#N)cc2)CCN1c1nc(N)c2cc(OC)c(OC)c(F)c2n1` [Example 8, 4-{(E)-3-[(S)-4-(4-Amino-8-fluoro-6,7-dimethoxy-quinazolin-2-yl)-3-ethyl-piperazin-1-yl]-3-oxo-propenyl}-benzonitrile] yielded an IC50 of 11 nM.
For `COCCCN[C@H](CC(=O)N1CCN(c2nc(N)c3cc(OC)c(OC)c(F)c3n2)CC1)c1ccc(F)cc1` [Example 94, (R)-1-(4-(4-amino-8-fluoro-6,7-dimethoxyquinazolin-2-yl)piperazin-1-yl)-3-(4-fluorophenyl)-3-(3-methoxypropylamino)propan-1-one], the IC50 was 6 nM.
With `COc1cc2c(N)nc(N3CCN(C(=O)C[C@@H]4CCCN4CC(C)C)CC3)nc2c(F)c1OC` [Example 108, (S)-1-(4-(4-amino-8-fluoro-6,7-dimethoxyquinazolin-2-yl)piperazin-1-yl)-2-(1-isobutylpyrrolidin-2-yl)ethanone] the IC50 was 170 nM.
`COCCOc1c(OC)cc2c(N)nc(N3CCN(C(=O)/C=C/c4ccc(C#N)cc4)CC3)nc2c1F` [Example 11, 4-((E)-3-{4-[4-Amino-8-fluoro-6-methoxy-7-(2-methoxy-ethoxy)-quinazolin-2-yl]-piperazin-1-yl}-3-oxo-propenyl)-benzonitrile] gave an IC50 of 230 nM.
`COc1cc2c(N)nc(N3CCN(C(=O)C[C@@H](NC(C)C)c4ccc(C#N)cc4)CC3)nc2c(F)c1OC` [Example 95, (R)-4-(3-(4-(4-amino-8-fluoro-6,7-dimethoxyquinazolin-2-yl)piperazin-1-yl)-1-(isopropylamino)-3-oxopropyl)benzonitrile] was tested, and the IC50 was 3 nM.
`CN[C@H](CC(=O)N1CCN(c2nc(N)c3cc(OC)c(OC)c(F)c3n2)CC1)c1ccc(C#N)cc1` [Example 77, (R)-4-(3-(4-(4-amino-8-fluoro-6,7-dimethoxyquinazolin-2-yl)piperazin-1-yl)-1-(methylamino)-3-oxopropyl)benzonitrile] was tested, and the IC50 was 4 nM.
`COc1cc2c(N)nc(N3C[C@@H](C)N(C(=O)C[C@@H](N)c4ccccc4)C[C@@H]3C)nc2c(F)c1OC` [Example 73, (R)-3-Amino-1-[(2R,5S)-4-(4-amino-8-fluoro-6,7-dimethoxy-quinazolin-2-yl)-2,5-dimethyl-piperazin-1-yl]-3-phenyl-propan-1-one] showed an IC50 of 60 nM.
`COc1cc2c(N)nc(N3CCN(C(=O)C[C@@H]4CC[C@H](c5ccccc5)N4)CC3)nc2c(F)c1OC` [Example 111, 1-[4-(4-Amino-8-fluoro-6,7-dimethoxy-quinazolin-2-yl)-piperazin-1-yl]-2-((2S,5R)-5-phenyl-pyrrolidin-2-yl)-ethanone] was tested, and the IC50 was 380 nM.
`COc1cc2c(N)nc(N3CCN(C(=O)c4cc5c(OC)cccc5[nH]4)CC3)nc2c(F)c1OC` [Example 20, [4-(4-Amino-8-fluoro-6,7-dimethoxy-quinazolin-2-yl)-piperazin-1-yl]-(4-methoxy-1H-indol-2-yl)-methanone] gave an IC50 of 9630 nM.
`COc1cc2c(N)nc(N3CCN(C(=O)C[C@@H](NCCF)c4ccc(F)cc4)CC3)nc2c(F)c1OC` [Example 98] showed an IC50 of 6 nM.
With `COc1cc2c(N)nc(N3CCN(C(=O)C[C@@H](N)c4cccc(C(F)(F)F)c4)CC3)nc2c(F)c1OC` [Example 54, (R)-3-Amino-1-[4-(4-amino-8-fluoro-6,7-dimethoxy-quinazolin-2-yl)-piperazin-1-yl]-3-(3-trifluoromethyl-phenyl)-propan-1-one] the IC50 was 260 nM.
`COCCOc1c(OC)cc2c(N)nc(N3CCN(C(=O)C[C@@H]4CCCCN4)CC3)nc2c1F` [Example 125, 1-{4-[4-Amino-8-fluoro-6-methoxy-7-(2-methoxy-ethoxy)-quinazolin-2-yl]-piperazin-1-yl}-2-(S)-piperidin-2-yl-ethanone] was tested, and the IC50 was 9950 nM.
With `COc1cc2c(N)nc(N3CCN(C(=O)C[C@@H](N)c4ccc(F)cc4)CC3)nc2c(C#N)c1OC` [Example 76, 4-Amino-2-{4-[(R)-3-amino-3-(4-fluoro-phenyl)-propionyl]-piperazin-1-yl}-6,7-dimethoxy-quinazoline-8-carbonitrile] the IC50 was 100 nM.
`CCCN[C@H](CC(=O)N1CCN(c2nc(N)c3cc(OC)c(OC)c(F)c3n2)CC1)c1ccc(Cl)s1` [Example 92, (R)-1-(4-(4-amino-8-fluoro-6,7-dimethoxyquinazolin-2-yl)piperazin-1-yl)-3-(5-chlorothiophen-2-yl)-3-(propylamino)propan-1-one] was tested, and the IC50 was 8 nM.
For `CN[C@H](CC(=O)N1CCN(c2nc(N)c3cc(OC)c(OC)c(F)c3n2)CC1)C1CCCCC1` [Example 78, (R)-1-(4-(4-amino-8-fluoro-6,7-dimethoxyquinazolin-2-yl)piperazin-1-yl)-3-cyclohexyl-3-(methylamino)propan-1-one], the IC50 was 80 nM.
`COc1cc2c(N)nc(N3CCN(C(=O)C[C@@H]4CCCN4)C[C@@H]3C)nc2c(F)c1OC` [Example 115, 1-[(S)-4-(4-Amino-8-fluoro-6,7-dimethoxy-quinazolin-2-yl)-3-methyl-piperazin-1-yl]-2-(S)-pyrrolidin-2-yl-ethanone] was tested, and the IC50 was 320 nM.
Molecule `COc1cc2nc(N3CCN(C(=O)/C=C/C4CC4)CC3)nc(N)c2c(F)c1OC` [Example 12, (E)-1-[4-(4-Amino-5-fluoro-6,7-dimethoxy-quinazolin-2-yl)-piperazin-1-yl]-3-cyclopropyl-propenone] has an IC50 of 140 nM.
`COc1cc2c(N)nc(N3CCN(C(=O)C[C@@H](N)c4ccsc4)CC3)nc2c(F)c1OC` [Example 37, (R)-3-Amino-1-[4-(4-amino-8-fluoro-6,7-dimethoxy-quinazolin-2-yl)-piperazin-1-yl]-3-thiophen-3-yl-propan-1-one] was tested, and the IC50 was 40 nM.
`COc1cc2c(N)nc(N3CCN(C(=O)C[C@@H](N)c4cccc(Cl)c4)CC3)nc2c(F)c1OC` [Example 47, (R)-3-Amino-1-[4-(4-amino-8-fluoro-6,7-dimethoxy-quinazolin-2-yl)-piperazin-1-yl]-3-(3-chloro-phenyl)-propan-1-one] was tested, and the IC50 was 110 nM.
